The subject of test [1] is neonatal rat ventricular myocytes. As to the kind of experiment: Hypertrophic growth of isolated neonatal rat ventricular myocytes (cell area). The test is classed as cell-based. The settings on record: for FGF23-induced increase in the cell area in the presence of heparin: heparin 0.19 USP/ml, increasing FGF23 concentrations, 48 hours. On the procedure: Neonatal rat ventricular myocytes (NRVMs) were isolated using a kit according to the manufacturer's protocol (LK003300, Worthington Biochemical Corporation), as done previously.^13,16,17 Briefly, hearts from 1- to 3-day-old Sprague Dawley rats (Envigo) were harvested and minced in calcium- and magnesium-free Hanks balanced salt solution and the tissue was digested with 50 μg/ml of trypsin at 4° C. for 20 to 24 hours. Soybean trypsin inhibitor in Hanks balanced salt solution was added, and the tissue was further digested with collagenase (in Leibovitz L-15 medium) under slow rotation (0.14 g) at 37° C. for 45 minutes. Cells were broken up by triturating the suspension 20× with a standard 10-ml plastic serological pipette. Cells were then filtered through a cell strainer (70 μm, BD Falcon). Cells were incubated at room temperature for 20 minutes and spun at 100 g for 5 minutes. The cell pellet was resuspended in plating medium (DMEM Base [10013CV, Corning], 17% M199 [12350039, Gibco], 15% FBS [26140079, Gibco], I× Pen/Strep [15140122, Gibco]). For cell tracings, NRVMs were grown in 24-well plates on glass coverslips (CLS1760012, Chemglass). Slips were precoated with laminin (23017015, Invitrogen) at 10 μg/ml for 1 hour at 37° C. dissolved in PBS. Laminin was aspirated, and cells and medium were added. Cells were counted by a hemocytometer and plated at 4×10^5 cells per well. […] After 48 hours, maintenance medium was replaced, and after another 48 hours, cells were ready for treatment, giving a total of 72 hours of plating medium and 96 hours of maintenance medium before treatment. […]
The medium was aspirated, and cultured NRVMs were fixed in 2% paraformaldehyde (P-6148, Sigma-Aldrich) and 4% sucrose dissolved in PBS for 5 minutes followed by permeabilization with 1% Triton X-100 dissolved in PBS for 10 minutes. […] The cross-sectional area of myocytes was measured on the basis of α-actinin-positive staining using ImageJ software (v1.53, National Institutes of Health). […]

Test [2] relates to FGF19 binding to FGFR isoforms 1c, 2c, 3c, 4. In words: Pull-down and plate binding of FGF19 to FGFR isoforms with sKL or heparin. Further details: species or system human. Here is the method:
To study the interaction between Fc-tagged FGFR isoforms (Fc-FGFR), FGF isoforms, and sKL, immunoprecipitation studies were conducted. Protein A beads (6501, BioVision) and protein G beads (6511, BioVision) were used at 25 μl of a 50% stock slurry per sample in a total bead volume of 50 μl. Beads were washed 5× in activity buffer (50 mM Tris [pH 7.4], 200 mM NaCl, 0.01% Tween 20). Bead spin-down assays were all performed for 2 minutes at 5000 g. Beads were resuspended in 1 ml of activity buffer in a 1.5-ml snap cap tube. One microgram of Fc-FGFR1 to 4 was incubated with the beads for 1 hour on a bead rotator. Control samples were incubated with 2 μg of anti-FGF antibody instead of Fc-FGFR. […] Samples were analyzed using SDS-PAGE and Western blotting.
Proteins were coated on 96-well plates (MaxiSorp; 439454, Thermo Fisher Scientific), and proteins were added to wells in 100 μl of enzyme-linked immunosorbent assay (ELISA) coating buffer (E107, Bethyl Laboratories) with a lid placed overtop and incubated at 4° C. overnight. […] Reactions were stopped with ELISA stop solution (E115, Bethyl Laboratories) and analyzed using the Synergy HI plate reader (BioTek) at 450 nm wavelength. […] As a control to remove background absorbance values, wells were coated with an equal amount of BSA to match the amount of protein coated in experimental wells and treated the same as experimental wells. […]

Sequence of FGF19 binding to FGFR isoforms 1c, 2c, 3c, 4 (O95750 25-216): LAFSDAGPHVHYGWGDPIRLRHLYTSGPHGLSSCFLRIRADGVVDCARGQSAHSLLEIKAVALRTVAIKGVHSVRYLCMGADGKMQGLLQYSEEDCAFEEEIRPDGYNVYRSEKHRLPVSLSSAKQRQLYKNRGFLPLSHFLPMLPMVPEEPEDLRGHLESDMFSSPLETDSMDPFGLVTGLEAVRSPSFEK

Turning to heparin [reference compound], the “FGF23-induced increase in the cell area in the presence of heparin” value in test [1] was “increased this effect at all FGF23 concentrations”; in test [1] (listed as heparin), “further elevated”. Further, the “NRVM area, treatment by itself” value in test [1] (without FGF23, 48 hours) is given as “no effect”. In addition, the “binding of FGF19 to any of the FGFR isoforms” value in test [2] is on record as “does not mediate binding”.

(Values after patent publication US20240384250A1, “FIBROBLAST GROWTH FACTOR 23 MODULATING COMPOUNDS” (THE UAB RESEARCH FOUNDATION, priority 2021, published 2024).)
